Reference: ChEMBL document CHEMBL1821612, “Discovery of novel antitubercular 3a,4-dihydro-3H-indeno[1,2-c]pyrazole-2-carboxamide/carbothioamide analogues” (Bioorg Med Chem Lett, 2011)
In brackets after ≈: the same amount, converted by molar mass.

test system: Mycobacterium tuberculosis; assay: Antimycobacterial activity against isoniazid-resistant Mycobacterium tuberculosis after 2 weeks by BACTEC 460 radiometric method; type: functional; settings: 336 h

Question: Which MIC does the source give for `COc1ccc(C2C3Cc4cc(OC)c(OC)cc4C3=NN2C(N)=S)cc1` (stereo unspecified) here?
Answer: > 12.5 µM

Question: `COc1cc2c(cc1OC)C1=NN(C(=O)Nc3c(C)cccc3C)C(c3ccccc3)C1C2` (stereo unspecified) was tested. Which MIC did it give?
Answer: > 12.5 µM

Question: For `COc1ccc(C2C3Cc4cc(OC)c(OC)cc4C3=NN2C(=O)Nc2c(C)cccc2C)cc1OC` (stereo unspecified), which MIC is on record?
Answer: > 12.5 µM

Question: For `COc1cc2c(cc1OC)C1=NN(C(=O)Nc3ccc(C)cc3C)C(c3ccccc3Cl)C1C2` (stereo unspecified), which MIC is on record?
Answer: 10 µM (≈ 4.76 µg/mL)

Question: With `NNC(=O)c1ccncc1` [ISONIAZID] as the compound, how does the MIC read?
Answer: 12.5 µM (≈ 1.71 µg/mL)

Question: With `COc1cc2c(cc1OC)C1=NN(C(N)=S)C(c3ccccc3)C1C2` (stereo unspecified) as the compound, how does the MIC read?
Answer: 12.5 µM (≈ 4.42 µg/mL)

Question: `COc1cc2c(cc1OC)C1=NN(C(=O)Nc3ccc(C)cc3C)C(c3ccc(F)cc3)C1C2` (stereo unspecified) was tested. Which MIC did it give?
Answer: 12.5 µM (≈ 5.74 µg/mL)

Question: For `COc1ccc(C2C3Cc4cc(OC)c(OC)cc4C3=NN2C(N)=S)cc1OC` (stereo unspecified), which MIC is on record?
Answer: 12.5 µM (≈ 5.17 µg/mL)

Question: With `COc1cc2c(cc1OC)C1=NN(C(=O)Nc3c(C)cccc3C)C(c3ccncc3)C1C2` (stereo unspecified) as the compound, how does the MIC read?
Answer: > 12.5 µM

Question: For `COc1ccc(C2C3Cc4cc(OC)c(OC)cc4C3=NN2C(=O)Nc2ccc(C)cc2C)cc1` (stereo unspecified), which MIC is on record?
Answer: > 12.5 µM

Question: `COc1ccc(C2C3Cc4cc(OC)c(OC)cc4C3=NN2C(=O)Nc2ccc(C)cc2C)cc1OC` (stereo unspecified) was tested. Which MIC did it give?
Answer: > 12.5 µM

Question: How did the MIC turn out when `COc1cc2c(cc1OC)C1=NN(C(=O)Nc3c(C)cccc3C)C(c3ccc(F)cc3)C1C2` (stereo unspecified) was run?
Answer: 10 µM (≈ 4.6 µg/mL)

Question: With `COc1cc2c(cc1OC)C1=NN(C(N)=S)C(c3ccncc3)C1C2` (stereo unspecified) as the compound, how does the MIC read?
Answer: 10 µM (≈ 3.54 µg/mL)

Question: How did the MIC turn out when `COc1cc2c(cc1OC)C1=NN(C(N)=S)C(c3ccc(F)cc3)C1C2` (stereo unspecified) was run?
Answer: 6.25 µM (≈ 2.32 µg/mL)

Question: For `COc1cc2c(cc1OC)C1=NN(C(=O)Nc3c(C)cccc3C)C(c3ccccc3Cl)C1C2` (stereo unspecified), which MIC is on record?
Answer: 12.5 µM (≈ 5.95 µg/mL)

Question: For `COc1ccc(C2C3Cc4cc(OC)c(OC)cc4C3=NN2C(=O)Nc2c(C)cccc2C)cc1` (stereo unspecified), which MIC is on record?
Answer: > 12.5 µM

Question: `COc1cc2c(cc1OC)C1=NN(C(=O)Nc3ccc(C)cc3C)C(c3ccncc3)C1C2` (stereo unspecified) was tested. Which MIC did it give?
Answer: > 12.5 µM

Question: Which MIC does the source give for `CO[C@H]1/C=C/O[C@@]2(C)Oc3c(C)c(O)c4c(O)c(c(/C=N/N5CCN(C)CC5)c(O)c4c3C2=O)NC(=O)/C(C)=C\C=C\[C@H](C)[C@H](O)[C@@H](C)[C@@H](O)[C@@H](C)[C@H](OC(C)=O)[C@@H]1C` [RIFAMPIN] here?
Answer: 3.12 µM (≈ 2.57 µg/mL)

Question: With `COc1cc2c(cc1OC)C1=NN(C(=O)Nc3ccc(C)cc3C)C(c3ccccc3)C1C2` (stereo unspecified) as the compound, how does the MIC read?
Answer: > 12.5 µM

Question: For `COc1cc2c(cc1OC)C1=NN(C(N)=S)C(c3ccccc3Cl)C1C2` (stereo unspecified), which MIC is on record?
Answer: 10 µM (≈ 3.88 µg/mL)

test system: Mycobacterium tuberculosis; assay: Ratio of isoniazid MIC to compound MIC for isoniazid-resistant Mycobacterium tuberculosis; type: functional; settings: not given

Question: For `COc1cc2c(cc1OC)C1=NN(C(N)=S)C(c3ccc(F)cc3)C1C2` (stereo unspecified), which Ratio is on record?
Answer: 2
